The target of assay [1] is T1, Estrogen receptor (Homo sapiens, UniProt Q92731+P03372). Put plainly: Antagonist activity at estrogen (hER) receptor; Efficacy <20% and/or potency >[…] nM. Format: functional.
For assay [2], the target named is T2, Mineralocorticoid receptor (Homo sapiens) (UniProt P08235).
T2 sequence (whole entry): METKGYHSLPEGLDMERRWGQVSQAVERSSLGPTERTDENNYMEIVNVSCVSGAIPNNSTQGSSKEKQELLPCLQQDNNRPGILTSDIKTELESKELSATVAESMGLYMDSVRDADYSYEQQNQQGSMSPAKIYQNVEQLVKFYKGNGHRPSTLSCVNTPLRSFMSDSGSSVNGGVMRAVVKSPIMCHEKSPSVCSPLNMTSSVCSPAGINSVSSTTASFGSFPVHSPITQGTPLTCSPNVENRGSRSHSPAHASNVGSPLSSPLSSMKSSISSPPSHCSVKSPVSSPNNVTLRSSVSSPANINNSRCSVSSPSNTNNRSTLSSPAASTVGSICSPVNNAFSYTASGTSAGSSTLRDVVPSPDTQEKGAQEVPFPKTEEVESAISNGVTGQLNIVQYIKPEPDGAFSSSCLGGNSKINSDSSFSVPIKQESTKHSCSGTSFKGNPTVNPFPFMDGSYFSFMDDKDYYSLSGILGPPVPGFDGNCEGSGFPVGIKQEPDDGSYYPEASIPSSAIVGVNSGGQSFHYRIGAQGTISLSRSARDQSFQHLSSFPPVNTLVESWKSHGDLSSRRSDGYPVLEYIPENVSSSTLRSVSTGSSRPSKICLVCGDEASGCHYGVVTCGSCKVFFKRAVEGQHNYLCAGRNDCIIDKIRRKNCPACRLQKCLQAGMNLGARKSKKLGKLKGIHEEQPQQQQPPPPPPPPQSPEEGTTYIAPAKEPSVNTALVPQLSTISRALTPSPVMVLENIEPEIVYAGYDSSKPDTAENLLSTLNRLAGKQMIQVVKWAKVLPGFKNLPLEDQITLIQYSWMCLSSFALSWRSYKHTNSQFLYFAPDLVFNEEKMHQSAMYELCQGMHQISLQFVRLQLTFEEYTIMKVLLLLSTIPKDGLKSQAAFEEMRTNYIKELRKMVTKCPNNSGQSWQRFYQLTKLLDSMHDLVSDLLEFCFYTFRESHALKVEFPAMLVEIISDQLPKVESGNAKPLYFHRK
As to the kind of experiment: Antagonist activity at mineralocorticoid receptor (hMR); Efficacy <20% and/or potency >[…] nM. Format: functional.

The target of assay [3] is T1, Estrogen receptor. Put plainly: Antagonist efficacy with Estrogen receptor; Efficacy <20% and/or potency >[…] nM. It counts as functional.
Assay [4] addresses T3, Glucocorticoid receptor (Homo sapiens, UniProt P04150).
T3 sequence (P04150 whole entry): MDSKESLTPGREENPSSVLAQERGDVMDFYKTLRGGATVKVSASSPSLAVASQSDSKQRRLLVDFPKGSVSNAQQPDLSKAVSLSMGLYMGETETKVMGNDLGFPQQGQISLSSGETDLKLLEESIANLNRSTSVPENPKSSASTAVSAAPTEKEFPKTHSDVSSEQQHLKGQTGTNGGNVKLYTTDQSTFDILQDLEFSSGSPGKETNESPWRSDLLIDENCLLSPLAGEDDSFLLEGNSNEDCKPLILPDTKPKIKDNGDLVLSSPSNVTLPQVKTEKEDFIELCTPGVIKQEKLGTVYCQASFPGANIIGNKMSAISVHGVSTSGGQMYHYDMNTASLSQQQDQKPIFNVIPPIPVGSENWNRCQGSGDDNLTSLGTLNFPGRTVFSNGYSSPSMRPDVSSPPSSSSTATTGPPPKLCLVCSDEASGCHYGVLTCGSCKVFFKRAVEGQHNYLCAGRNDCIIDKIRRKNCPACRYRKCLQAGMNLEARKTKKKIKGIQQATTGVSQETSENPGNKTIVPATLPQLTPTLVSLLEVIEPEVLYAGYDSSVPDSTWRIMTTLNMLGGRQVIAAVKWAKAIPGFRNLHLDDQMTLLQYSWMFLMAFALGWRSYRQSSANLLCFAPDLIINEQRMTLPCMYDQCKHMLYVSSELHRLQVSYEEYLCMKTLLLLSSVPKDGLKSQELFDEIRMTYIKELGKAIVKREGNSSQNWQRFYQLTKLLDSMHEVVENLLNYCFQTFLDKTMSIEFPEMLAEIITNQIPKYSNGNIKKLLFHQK
Put plainly: Antagonist activity at glucocorticoid receptor. Format: functional.

The target of assay [5] is T2, Mineralocorticoid receptor (Homo sapiens). Put plainly: Antagonist efficacy at mineralocorticoid receptor (hMR); Efficacy <20% and/or potency >[…] nM. It counts as functional.
For assay [6], the target named is T3, Glucocorticoid receptor. As to the kind of experiment: Antagonist activity at glucocorticoid (hGR) receptor. Format: functional.
The target of assay [7] is T4, Androgen receptor (Homo sapiens, UniProt P10275).
T4 sequence (P10275 whole entry): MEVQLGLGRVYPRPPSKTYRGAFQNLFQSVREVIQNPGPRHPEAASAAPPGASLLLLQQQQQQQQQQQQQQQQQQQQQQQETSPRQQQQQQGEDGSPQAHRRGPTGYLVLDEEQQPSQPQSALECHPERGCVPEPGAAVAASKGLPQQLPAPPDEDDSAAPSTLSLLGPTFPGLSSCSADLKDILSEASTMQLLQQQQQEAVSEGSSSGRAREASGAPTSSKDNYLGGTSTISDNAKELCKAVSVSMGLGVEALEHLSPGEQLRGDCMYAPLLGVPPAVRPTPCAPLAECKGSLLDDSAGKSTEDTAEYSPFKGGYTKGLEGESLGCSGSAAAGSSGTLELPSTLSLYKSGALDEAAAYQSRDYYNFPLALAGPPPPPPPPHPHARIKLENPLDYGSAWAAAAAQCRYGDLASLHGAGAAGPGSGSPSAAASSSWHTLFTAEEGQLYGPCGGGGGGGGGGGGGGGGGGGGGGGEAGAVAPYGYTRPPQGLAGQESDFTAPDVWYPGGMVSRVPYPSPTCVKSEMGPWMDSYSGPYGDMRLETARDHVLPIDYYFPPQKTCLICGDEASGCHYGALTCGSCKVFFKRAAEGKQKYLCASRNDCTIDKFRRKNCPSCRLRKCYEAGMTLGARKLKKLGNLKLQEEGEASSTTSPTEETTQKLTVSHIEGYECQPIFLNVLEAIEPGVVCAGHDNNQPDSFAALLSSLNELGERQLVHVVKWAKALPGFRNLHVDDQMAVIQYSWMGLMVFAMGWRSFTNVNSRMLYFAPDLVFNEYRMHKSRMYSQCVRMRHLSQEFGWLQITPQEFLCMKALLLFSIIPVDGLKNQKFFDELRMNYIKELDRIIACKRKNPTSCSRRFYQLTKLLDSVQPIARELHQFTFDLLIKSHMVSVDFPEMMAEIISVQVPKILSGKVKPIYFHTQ
As to the kind of experiment: Antagonist activity against Androgen receptor; not active. It counts as functional.

In assay [8] the target is T4, Androgen receptor.
The target of assay [9] is T3, Glucocorticoid receptor.

The structures appear in SMILES notation. The source made the active and inactive calls. The rule behind the calls is not given here.

As usually defined, the IC50 is the concentration at which inhibition is half-maximal. A low value points to higher potency. For the molecule `CC/C(C)=C1\Oc2ccc(F)cc2-c2ccc3c(c21)C(C)=CC(C)(C)N3`, the Efficacy entry (on Estrogen receptor [1]; in [2]; on Estrogen receptor [3]; in [5]) was “inactive” throughout. Besides, the IC50 on Glucocorticoid receptor [4] is 324 nM.

Regarding `CC(C)=C/C=C1\Oc2ccc(F)cc2-c2ccc3c(c21)C(C)=CC(C)(C)N3`, the IC50 is 177 nM against Glucocorticoid receptor [6] and more than 1000 nM at Androgen receptor [7].

Consider `CC(=O)C[C@]1(C(C)=O)CC[C@H]2C3C[C@H](C)C4=CC(=O)CC[C@]4(C)[C@H]3CC[C@@]21C` (stereo partly specified), for which the IC50 came to 10 nM against Glucocorticoid receptor [6] and 6.1 nM at Androgen receptor [8].

Take `CC1=CC(C)(C)Nc2ccc3c(c21)/C(=C/Br)Oc1ccc(F)cc1-3`: the IC50 was more than 1000 nM against Glucocorticoid receptor [9] and 250 nM against Androgen receptor [8].

(Values after ChEMBL document CHEMBL1136068 (Bioorg Med Chem Lett, 2003).)
